This is an account of results in patent publication US20210363495A1, “CULTURE MEDIA FOR PLURIPOTENT STEM CELLS” (Yeda Research and Development Co. Ltd., priority 2019, published 2021).

Assay [1] relates to Tet-OFF-METTL3 hESCs (WIBR3, clone W3G4). In words: Pluripotency (OCT4+) maintenance of Tet-OFF-METTL3 hESCs in the presence of DOX. In kind it is cell-based, human. Conditions: for expanding METTL3 depleted cells when substituted for TNKi: optimized ENHSM conditions without TNKi, DOX up to 4 passages; for expansion of Tet-OFF-METTL3 on DOX: individual small molecule supplemented to NHSM, Geltrex coated plates, no MEFs. An excerpt: FIGS. 1A-I Defining enhanced human naive conditions compatible with expanding METTL3 depleted PSCs. A. Strategy for generating human ESCs with TET-OFF regulated expression of METTL3 m^6A methyltransferase enzyme. B. Western blot analysis for correctly engineered human ESCs with TET-OFF METTL3 regulation, before and after DOX treatment. C. Representative images for human METTL3 TET-OFF engineered cells in different conditions with or without DOX addition. […] D. Scheme depicting strategy for conducting a screen for identifying a small molecule or cytokine additive to previously described human naïve NHSM conditions that allow maintain pluripotency in TET-OFF METTL3 human stem cells after adding DOX. E. W3G4 cells were maintained in the presence of DOX for up to 4 passages in different conditions and stained for OCT4 to quantify percentage of cells that retained their pluripotency. […] F. OCT4+ pluripotency maintenance in NHSM conditions supplemented with various TNK inhibitors and DOX to repress METTL3 expression. G. Quantification of ΔPE-OCT4-GFP knock in naïve pluripotency reporter, in variety of primed (red) and naïve conditions (blue). Mean fluorescence intensity values (MFI) are indicated. H. Quantification of ΔPE-OCT4-GFP knock in naïve pluripotency reporter in variety of conditions with various concentrations of ACTIVIN A recombinant cytokine. […] I. Representative phase contrast images in human ESCs expanded in NHSM+TNKi conditions showing their maintenance of pluripotent domed-like morphology even in the presence of FGFRi.
In order to identify culture conditions which capture human naïve PSC, the present inventors looked for agents which are capable of maintaining stem cells in a pluripotent state in the absence of defined epigenetic repressors. Human knock-in WIBR3 hESC lines with conditional inducible ablation expression of METTL3 were engineered (FIG. 1A). This was carried out by introducing an exogenous METTL3 transgene under the regulation of Tet-OFF promoter (Liao et al., 2015), followed by CRISPR/Cas9 mediated ablation of both endogenous human METTL3 alleles. Two resultant clones were validated for METTL3 expression only from the exogenous allele, which can be shut off by addition of DOX to the media (called Tet-OFF-METTL3 lines) (FIG. 1B).
The latter further support rewiring toward naïve pluripotency in NHSM conditions. […] Candidate molecules were tested for the ability to enrich NHSM conditions that allow Tet-OFF-METTL3 to be maintained on Geltrex coated plates in the presence of DOX.
NHSM conditions were supplemented with individual small molecules (FIG. 1D). […] IWR1 is a WNT inhibitor (WNTi) small molecule that stabilizes AXIN protein in the cytoplasm by inhibiting Tankyrase enzyme (abbreviated herein as TNK inhibitor—TNKi).

Assay [2] concerns human ESCs. In words: Domed morphology under TGF/ACTIVIN signalling blockade. In kind it is cell-based. An excerpt: FIGS. 1A-I Defining enhanced human naive conditions compatible with expanding METTL3 depleted PSCs. A. Strategy for generating human ESCs with TET-OFF regulated expression of METTL3 m^6A methyltransferase enzyme. B. Western blot analysis for correctly engineered human ESCs with TET-OFF METTL3 regulation, before and after DOX treatment. C. Representative images for human METTL3 TET-OFF engineered cells in different conditions with or without DOX addition. […] E. W3G4 cells were maintained in the presence of DOX for up to 4 passages in different conditions and stained for OCT4 to quantify percentage of cells that retained their pluripotency. […] G. Quantification of ΔPE-OCT4-GFP knock in naïve pluripotency reporter, in variety of primed (red) and naïve conditions (blue). Mean fluorescence intensity values (MFI) are indicated. H. Quantification of ΔPE-OCT4-GFP knock in naïve pluripotency reporter in variety of conditions with various concentrations of ACTIVIN A recombinant cytokine. […]
FIGS. 3A-I. Defining enhanced human naive conditions compatible with blocking TGF/ACTIVIN signaling. […] F. Mass spectrometry-based quantification of m^6A on isolated mRNA from the indicated cell lines and conditions. […]

The test system of assay [3] is WIBR2 hESC carrying MECP2 fluorescent reporter alleles. In words: X chromosome reactivation, MECP2 two-colour reporter FACS. Conditions: added to ENHSM without ERKi (0ENHSM) or with 0.33 microM ERKi (tENHSM). It is filed as cell-based, human. An excerpt:
FIGS. 17A-D. Chromosome X reactivation status and DNA methylation profile in ENHSM based conditions. A. Schematic and FACS results following using WIBR2 (person 46XX) 29-9 hESC line that carries GFP and mCherry on each of the X chromosomes in the MECP2 locus. Parental 29-9 clone has the X chromosome carrying mCherry allele in the active state, and thus is positive only for mCherry and negative for GFP in the primed state. Upon transfer to ENHSM conditions, all cells turn on both X chromosomes and thus become double positive for both fluorescent markers (GFP and mCherry). After transfer into primed conditions (i.e. repriming), cells start to inactivate the X chromosome again. B. RNA-FISH analysis for ATRX transcription in primed and ENHSM WIBR3 cells. Note ATRX is active on both X chromosomes only in ENHSM conditions. C. Western blot analysis for DNA methylation regulators, DNMT1 and UHRF enzymes. DNMT1 protein levels are maintained in all conditions. […] D. Global methylation histogram as calculated from primed samples, and naïve samples that were maintained in various conditions, including titrated ERKi supplementation, along with previously published Reset-naïve and primed samples (Takashima et al), and human ICM samples (Smith et al, Nature 2014, Guo et al, Nature 2014). […]

`COc1cccc(-c2cn(-c3ccc(CCN4CCC(O)CC4)cc3)c3ncnc(N)c23)c1` [CGP77675]: the “maintenance of OCT4+ cells without ACTIVIN A” value in assay [1] (TNKi supplemented optimized NHSM, no ACTIVIN A, on DOX) was “dramatically maintained the stability of dome like cells that were uniformly OCT4+”.

On to `Cc1cccc(-c2nn(C(=S)Nc3ccccc3)cc2-c2ccnc3ccccc23)n1` [Condition A83-01], for which the “domed morphology after TGFRi” value was “maintained” in assay [2] (cells in ENHSM); “lose their pluripotent dome-like shaped morphology and differentiate” in assay [2] (cells in NHSM+TNKi).

Regarding `C[C@H](NC(=O)Cc1cc(F)cc(F)c1)C(=O)N[C@@H]1C(=O)N(C)c2ccccc2-c2ccccc21` [DBZ], the “maintenance of pre-X inactivation naïve state when ERKi is omitted or depleted” value in assay [3] is “allowed robust and feeder free maintenance of human naïve cells”.

`O=C1Cc2c([nH]c3ccc(Br)cc23)-c2ccccc2N1` [Kenpaullone]: the “expanding METTL3 depleted cells when substituted for TNKi” value in assay [1] is “none of them allowed expanding METTL3 depleted cells in vitro”.

Regarding `CCCC(CCC)C(=O)O` [VPA], the “expanding METTL3 depleted cells when substituted for TNKi” value in assay [1] is listed as “none of them allowed expanding METTL3 depleted cells in vitro”.

Regarding `Oc1nc(-c2ccc(C(F)(F)F)cc2)nc2c1CSCC2` [XAV939], the “expansion of Tet-OFF-METTL3 on DOX” value in assay [1] is on record as “yielded a similar effect”.

As for `O=C(Nc1cccc2cccnc12)c1ccc(N2C(=O)[C@@H]3[C@H](C2=O)[C@H]2C=C[C@@H]3C2)cc1` [exo-IWR1], in assay [1], the “expansion of Tet-OFF-METTL3 on DOX” value is “failed to do so”.

B1: ACTIVIN A: recombinant cytokine, activator of TGF/ACTIVIN pathway (protein)
chain: MPLLWLRGFLLASCWIIVRSSPTPGSEGHSAAPDCPSCALAALPKDVPNSQPEMVEAVKKHILNMLHLKKRPDVTQPVPKAALLNAIRKLHVGKVGENGYVEIEDDIGRRAEMNELMEQTSEIITFAESGTARKTLHFEISKEGSDLSVVERAEVWLFLKVPKANRTRTKVTIRLFQQQKHPQGSLDTGEEAEEVGLKGERSELLLSEKVVDARKSTWHVFPVSSSIQRLLDQGKSSLDVRIACEQCQESGASLVLLGKKKKKEEEGEGKKKGGGEGGAGADEEKEQSHRPFLMLQARQSEDHPHRRRRRGLECDGKVNICCKKQFFVSFKDIGWNDWIIAPSGYHANYCEGECPSHIAGTSGSSLSFHSTVINHYRMRGHSPFANLKSCCVPTKLRPMSMLYYDDGQNIIKKDIQNMIVEECGCS
modifications: homo sapiens
For the molecule B1, the “maintenance of pre-X inactivation naïve state when ERKi is omitted or depleted” value in assay [3] was “did not block loss X reactivation”.
